From patent US7384933B2, “Derivatives of 2-hydroxytetrahydrofuran and their use as medicaments” (priority 2003, dated 2008) come the findings set out here.

By melting point is commonly meant the temperature, or range, at which the solid turns liquid.

Turning to `CC(C)C[C@H](NC(=O)Cc1ccc2c(c1)Nc1ccccc1S2)C(=O)N[C@@H](CC(C)C)C(=O)N[C@H]1CCOC1O` (stereo partly drawn) [Example 16, N-(10H-phenothiazin-2-ylacetyl)-L-leucyl-N^1-[(3S)-2-hydroxytetrahydrofuran-3-yl]-L-leucinamide], the melting point was 168 to 168.5 °C.
With `CC(C)C[C@H](NC(=O)[C@H](COC(C)(C)C)NC(=O)Cc1ccc2c(c1)Nc1ccccc1S2)C(=O)N[C@H]1CCOC1O` (stereo partly drawn) [Example 17, O-(tert-butyl)-N-(10H-phenothiazin-2-ylacetyl)-L-seryl-N^1-[(3S)-2-hydroxytetrahydrofuran-3-yl]-L-leucinamide] the figure was 135 to 136 °C; with `C[C@H](NC(=O)Cc1ccc2c(c1)Nc1ccccc1S2)C(=O)N[C@@H](CC1CCCCC1)C(=O)N[C@H]1CCOC1O` (stereo partly drawn) [Example 18, N-(10H-phenothiazin-2-ylacetyl)-L-alanyl-3-cyclohexyl-N^1-[(3S)-2-hydroxytetrahydrofuran-3-yl]-L-alaninamide], 215 to 217 °C; with `CC(C)C[C@H](NC(=O)COc1ccc2c(c1)Nc1ccccc1S2)C(=O)N[C@@H](CC(C)C)C(=O)N[C@H]1CCOC1O` (stereo partly drawn) [Example 40, N-[(10H-phenothiazin-2-yloxy)acetyl]-L-leucyl-N^1-[(3S)-2-hydroxytetrahydrofuran-3-yl]-L-leucinamide], 141.5 to 142 °C.
Next, `CC(C)C[C@H](NC(=O)CNC(=O)COc1ccc2c(c1)Nc1ccccc1S2)C(=O)N[C@H]1CCOC1O` (stereo partly drawn) [Example 41, N-[(10H-phenothiazin-2-yloxy)acetyl]-glycyl-N^1-[(3S)-2-hydroxytetrahydrofuran-3-yl]-L-leucinamide]: 184 to 186 °C; `CC(C)C[C@H](NC(=O)[C@H](C)NC(=O)COc1ccc2c(c1)Nc1ccccc1S2)C(=O)N[C@H]1CCOC1O` (stereo partly drawn) [Example 42, N-[(10H-phenothiazin-2-yloxy)acetyl]-L-alanyl-N^1-[(3S)-2-hydroxytetrahydrofuran-3-yl]-L-leucinamide]: 144 to 146 °C.
Next, `CC(C)C[C@H](NC(=O)[C@@H](NC(=O)COc1ccc2c(c1)Nc1ccccc1S2)C(C)C)C(=O)N[C@H]1CCOC1O` (stereo partly drawn) [Example 43, N-[(10H-phenothiazin-2-yloxy)acetyl]-L-valyl-N^1-[(3S)-2-hydroxytetrahydrofuran-3-yl]-L-leucinamide]: 205 to 206 °C; `CC(C)C[C@H](NC(=O)CCNC(=O)COc1ccc2c(c1)Nc1ccccc1S2)C(=O)N[C@H]1CCOC1O` (stereo partly drawn) [Example 44, N-[(10H-phenothiazin-2-yloxy)acetyl]-β-alanyl-N^1-[(3S)-2-hydroxytetrahydrofuran-3-yl]-L-leucinamide]: 161 to 162 °C.
The compound `CC(C)C[C@H](NC(=O)CN(C)C(=O)COc1ccc2c(c1)Nc1ccccc1S2)C(=O)N[C@H]1CCOC1O` (stereo partly drawn) [Example 45, N-methyl-N-[(10H-phenothiazin-2-yloxy)acetyl]glycyl-N^1-[(3S)-2-hydroxytetrahydrofuran-3-yl]-L-leucinamide] registered a melting point of 137 to 138 °C.
Next, `CC(C)C[C@H](NC(=O)[C@H](NC(=O)COc1ccc2c(c1)Nc1ccccc1S2)C(C)C)C(=O)N[C@H]1CCOC1O` (stereo partly drawn) [Example 46, N-[(10H-phenothiazin-2-yloxy)acetyl]-D-valyl-N^1-[(3S)-2-hydroxytetrahydrofuran-3-yl]-L-leucinamide]: 145 to 146 °C; `CC(C)C[C@H](NC(=O)[C@@H](NC(=O)COc1ccc2c(c1)Nc1ccccc1S2)C(C)(C)C)C(=O)N[C@H]1CCOC1O` (stereo partly drawn) [Example 47, 3-methyl-N-[(10H-phenothiazin-2-yloxy)acetyl]-L-valyl-N^1-[(3S)-2-hydroxytetrahydrofuran-3-yl]-L-leucinamide]: 157 to 159 °C; `CC[C@H](NC(=O)COc1ccc2c(c1)Nc1ccccc1S2)C(=O)N(C(=O)[C@@H](N)CC(C)C)[C@H]1CCOC1O` (stereo partly drawn) [Example 48, N^1-[(3S)-2-hydroxytetrahydrofuran-3-yl]-N^1-((2S)-2-{[(10H-phenothiazin-2-yloxy)acetyl]amino}butanoyl)-L-leucinamide]: 160 to 161 °C.
For the compound `CCC[C@H](NC(=O)COc1ccc2c(c1)Nc1ccccc1S2)C(=O)N[C@@H](CC(C)C)C(=O)N[C@H]1CCOC1O` (stereo partly drawn) [Example 49, N-[(10H-phenothiazin-2-yloxy)acetyl]-L-norvalyl-N^1-[(3S)-2-hydroxytetrahydrofuran-3-yl]-L-leucinamide], the melting point fell in the range of 195 to 196 °C.
Turning to `CC(C)C[C@H](NC(=O)[C@H](CO)NC(=O)COc1ccc2c(c1)Nc1ccccc1S2)C(=O)N[C@H]1CCOC1O` (stereo partly drawn) [Example 50, N-[(10H-phenothiazin-2-yloxy)acetyl]-L-seryl-N^1-[(3S)-2-hydroxytetrahydrofuran-3-yl]-L-leucinamide], the melting point was 128 to 130 °C.
With `CC(C)C[C@H](NC(=O)[C@@H](NC(=O)COc1ccc2c(c1)Nc1ccccc1S2)[C@@H](C)O)C(=O)N[C@H]1CCOC1O` (stereo partly drawn) [Example 51, N-[(10H-phenothiazin-2-yloxy)acetyl]-L-threonyl-N^1-[(3S)-2-hydroxytetrahydrofuran-3-yl]-L-leucinamide] the figure was 195 to 196 °C.
Next, `CC(C)C[C@H](NC(=O)[C@@H](NC(=O)COc1ccc2c(c1)Nc1ccccc1S2)c1ccccc1)C(=O)N[C@H]1CCOC1O` (stereo partly drawn) [Example 52, N^1-[(3S)-2-hydroxytetrahydrofuran-3-yl]-N^2-((2S)-2-{[(10H-phenothiazin-2-yloxy)acetyl]amino}-2-phenylethanoyl)-L-leucinamide]: 137 to 138 °C.
As for `C=CC(NC(=O)COc1ccc2c(c1)Nc1ccccc1S2)C(=O)NC(CC(C)C)C(=O)NC1CCOC1O` [Example 53, N^1-[(3S)-2-hydroxytetrahydrofuran-3-yl]-N^2-((2S)-2-{[(10H-phenothiazin-2-yloxy)-acetyl]amino}goal-3-enoyl)-L-leucinamide], the melting point lay within 159 to 161 °C.
With `CC(C)C[C@H](NC(=O)C(C)(C)NC(=O)COc1ccc2c(c1)Nc1ccccc1S2)C(=O)N[C@H]1CCOC1O` (stereo partly drawn) [Example 54] the figure was 138 to 140 °C; with `CC(C)[C@H](NC(=O)CNC(=O)COc1ccc2c(c1)Nc1ccccc1S2)C(=O)N[C@H]1CCOC1O` (stereo partly drawn) [Example 55, N-[(10H-phenothiazin-2-yloxy)acetyl]glycyl-N^1-[(3S)-2-hydroxytetrahydrofuran-3-yl]-L-valinamide], 200 to 201 °C.
`O=C(COc1ccc2c(c1)Nc1ccccc1S2)NCC(=O)N[C@@H](CC1CCCCC1)C(=O)N[C@H]1CCOC1O` (stereo partly drawn) [Example 56, N-[(10H-phenothiazin-2-yloxy)acetyl]glycyl-3-cyclohexyl-N^1-[(3S)-2-hydroxytetrahydrofuran-3-yl]-L-alaninamide] showed a melting point of 212 to 215 °C.
For `NC(=O)[C@H](Cc1ccccc1)N(C(=O)CNC(=O)COc1ccc2c(c1)Nc1ccccc1S2)[C@H]1CCOC1O` (stereo partly drawn) [Example 57, N-[(10H-phenothiazin-2-yloxy)acetyl]glycyl-N^1-[(3S)-2-hydroxytetrahydrofuran-3-yl]-L-phenylalaninamide], the melting point lay within 207 to 208 °C.
